Assay results published in PMC5820046 (Internal Medicine, 2017).
Where two headings read alike, the source gives them in different places.

Key:
[1] = present case, DAP 7 mg/kg every 48 hours, chronic renal failure, HPLC
patients [2] = settings: FDA adverse event reporting system, 2004 to 2010; cited from earlier work
plasma protein [3] = experiment: Plasma protein binding of DAP, present case; format: in vitro ADME, human; settings: patient plasma, DAP 7 mg/kg every 48 hours
[4] = healthy volunteers; DAP 6 mg/kg every 24 hours; cited from earlier work
patients [5] = settings: phase III clinical trials; cited from earlier work
patient [6] = settings: present case, rapid type
plasma protein [7] = settings: healthy volunteers, escalating dose levels; cited from earlier work
T cells = settings: present case
patient [8] = settings: present case
patients [9] = settings: cited from earlier work
patient [10] = settings: present case (case 37)

CCCCCCCCCC(=O)N[C@@H](Cc1c[nH]c2ccccc12)C(=O)N[C@H](CC(N)=O)C(=O)N[C@@H](CC(=O)O)C(=O)N[C@@H]1C(=O)NCC(=O)N[C@@H](CCCN)C(=O)N[C@@H](CC(=O)O)C(=O)N[C@H](C)C(=O)N[C@@H](CC(=O)O)C(=O)NCC(=O)N[C@H](CO)C(=O)N[C@@H]([C@H](C)CC(=O)O)C(=O)N[C@@H](CC(=O)c2ccccc2N)C(=O)O[C@@H]1C [DAP, Daptomycin]
median plasma DAP Cmin [1]: 27400 ng/mL
patients who developed DAP-associated EP (patients [2]): 63 patients
percentage of plasma protein-bound DAP (plasma protein [3]): 87.8%
median plasma DAP Cmin [4]: 9130 ng/mL
myopathic symptoms, patients (patients [5]): 0.2%
serum creatinine kinase (CK) elevation, patients (patients [5]): 2.8%
intracutaneous test reaction (patient [6]): positive
intracutaneous test reaction (patient [6]; listed as daptomycin): positivity
percentage of DAP plasma protein binding (plasma protein [7]): consistent across dose levels
drug lymphocyte stimulation test (DLST) reaction (T cells): negative
Skin tests, prick-puncture administration and patch tests, reaction (patient [8]): negative
DAP Cmin associated with an increased probability of CK elevation (patients [9]): 24300 ng/mL
Imaging findings (patient [10]; DAP 7 mg/kg): Bilateral, peripheral nodules and patchy consolidations
Prognosis (patient [10]; initial treatment withdrawal): Recover
